The values below come from patent EP2106802A1, “Modified peptides as synthetic vaccines in amyloid-associated disease” (SIGMA-TAU Industrie Farmaceutiche Riunite S.p.A., priority 2008, dated 2009).

No end group written: not given here.

For data set [1], the system named is T lymphocytes expressing CXCR5 in PBMCs of healthy donors. Put plainly: CXCR5 expression in T-lymphocytes after peptide stimulation (flow cytometry). It counts as cell-based, human. The settings on record: for Percentage of T-lymphocytes expressing CXCR5, 1st and 3rd quartine: 1st and 3rd quartile of 10 donors; for expression of CXCR5 with respect to CTR: T-lymphocytes, Friedman test, result in words; for Percentage of T-lymphocytes expressing CXCR5: peptides 5ug/ml, 4 days after third stimulation; for Percentage of T-lymphocytes expressing CXCR5, Median: median of 10 donors, * P = <0,001 (Friedman). As to the method: In order to evaluate the expression of a specific marker (CXCR5) in cultured […], the cells, 4 days after the third stimulation, were washed twice and stained with anti-CXCR5, in PBS supplemented with 0.5% FCS and 0.01%NaN3 at 4°C. After twenty minutes they were washed twice and analysed on FACSCanto flow cytometer (Becton Dickinson). The data were analyzed using FlowJo software (TreeStar, CA, USA).
Table 3. The CXCR5 expression measured as % of T lymphocytes expressing CXCR5 in PBMCs of healthy donors vs total lymphocytes (median, 1st and 3rd quartile) has been reported. Friedman Repeated Measures Analysis of Variance on Ranks has been performed. Column 1: number of different donors (Pz); column 2: the percentage of control (CTR) not challenged T lymphocytes expressing CXCR5; columns 3-12: the percentage of T lymphocytes expressing CXCR5 after the stimulation with different peptides.
CXCR5, a chemokine transmembrane receptor belonging to the CXC chemokine receptor family plays an essential role in B cell activation (Legler D.F., et al., J. Exp. Med., 1998, 187, 4, 655). The CXCR5 expression was measured as % of T-lymphocytes expressing CXCR5 versus total lymphocytes (median, 1st and 3rd quartile) and Friedman Repeated Measures Analysis of Variance on Ranks was performed.
(In flow cytometry, cells or beads pass a laser one at a time.)

Data set [2] concerns IFN-γ.
Experimental: To do this, the T-lymphocytes form peripheral blood mononuclear cells (PBMCs) response to Aβ[1-42] and Aβ[1-16], Aβ[1-16]-G, Aβ[1-16]+G, Aβ[13-28], Aβ[13-28]-G, Aβ[13-28]+G, Aβ[25-42], Aβ[25-42]-G, Aβ[25-42]+G was studied with the following experimental procedure:
In order to obtain mature dentritic cells, PBMCs from healthy donors were isolated by Ficoll-Hypaque gradient centrifugation (Pharmacia, Uppsala, Sweden). The cells were washed twice with PBS and finally were cultured at 10^6 cells/ml in RPMI 1640 supplemented with 10% (v/v) heat inactivated human serum (Bio Whittaker; Cambrex, Bioscience, Walkersville, MD Usa), 2mM L-glutamine, 20mM HEPES [N-2-hydroxyethylpiperazine-N'-2-ethanesulfonic acid], 1mM sodium pyruvate, 20mM non-essential amino acids, 55 µM 2-β-mercaptoethanol, 10 U/ml penicillin and streptomycin (Gibco and Invitrogen).
In order to obtain a pure culture of human peripheral blood monocytes, cells were purified by plastic adherence at 37°C for 30 minutes, followed by extensive washing with warm PBS to remove non-adherent cells. The monocytes were cultured in six-well plates (0,5 to 1,5 * 10^6 cells/m) in fresh complete medium supplemented with 1000U/ml of recombinant granulocyte-macrophage colony-stimulating factor (rGM-CSF) and 500U/ml interleukin-4 (IL-4, Pharmigen) for four days. The non-adherent mononuclear cells were washed repeatedly and cultured in 96-well round bottom plates (Nunc, Denmark) (10^6 cell/ml) in complete culture medium supplemented with interleukin-2 (IL-2; 5U/ml; Roche) for 4 days and used for subsequent studies. Monocytes-derived immature dendritic cells (DCs) were stimulated with the Aβ[1-16], Aβ[1-16]-G, Aβ[1-16]+G, Aβ[13-28], Aβ[13-28]-G, Aβ[13-28]+G, Aβ[25-42], Aβ[25-42]-G, Aβ[25-42]+G and Aβ[1-42] peptides (5ug/ml) for 1 day. For induction of dentritic cells (DC) maturation, the cells were stimulated with 50ng/ml TNFα (Pharmigen), 10ng/ml IL-6, 10ng/ml IL-1β, and 1µg/ml PGE2 for additional 2 days. Finally, they were cultured with autologous T-lymphocytes in 96-well flat bottom plates at a 1:4 ratio. A second stimulation with mature autologous monocyte-derived DC's previously stimulated with the peptides was performed at 10-14 days at the same ratios. Following further 10-14 days, lymphocytes were labelled with CFDA challenged with a third stimulation of monocyte-derived DC in the presence of peptides.
In order to evaluate the amount of IFN-γ produced by lymphocytes after the final third peptides stimulation the supernatants from cultured cells were harvested at 24 or 48 hr after the third stimulation. Cytokines were quantified by a standard-2-site sandwich enzyme-liked immunosorbent assay (ELISA). Abs for human IFN-γ were purchased from Pharmigen. Enhanced protein-binding ELISA plates (Nunc Maxisorb, Nunc Maxi, Roskilde, Denmark) were used.
For data set [3] the following is noted: phase II studies, patients who received the vaccine; cited from earlier work.
For data set [4] the following is noted: active vaccination, APP transgenic mice; cited from earlier work.

For the substance “Seq.5: Aβ[13-28] fragment of the Aβ[1-42] sequence (HHQKLVFFAEDVGSNK)”, the “Percentage of T-lymphocytes expressing CXCR5, 1st and 3rd quartine” value (“Percentage … 1st and 3rd quartine” below) in data set [1] was 8.5-30.4%. The “expression of CXCR5 with respect to CTR” value in data set [1] was “statistically different expression of CXCR5 with respect to CTR”. Also, the “Percentage of T-lymphocytes expressing CXCR5” value was 15.05% in data set [1] (donor Pz1); 23.05% in data set [1] (donor Pz2); 12.08% in data set [1] (donor Pz3); 1.02% in data set [1] (donor Pz4); 8,5% in data set [1] (donor Pz5); 7,4% in data set [1] (donor Pz6). In addition, the “Percentage of T-lymphocytes expressing CXCR5” value in data set [1] (donor Pz7) is on record as 13,5%; in data set [1] (donor Pz8), 45.01%; in data set [1] (donor Pz9), 33.00%; in data set [1] (donor Pz10) it was 30.04%. Moreover, in data set [1], the “Percentage of T-lymphocytes expressing CXCR5, Median” value (“Percentage … Median” for short) was 14.5* %. In addition, the “production of IFN-γ in challenged T-lymphocytes” value (“production of IFN-γ” below) in data set [2] is reported as “statistically significative production of IFN-γ”.
As to GGNGGGIGGGMGGGVGIG [Seq.10], the “production of IFN-γ” value in data set [2] was “statistically significative production of IFN-γ”.
For the substance “Seq.9: Aβ[25-42] fragment modified by introduction of glycines in alternate positions, at odd positions (-G) (GSGKGAGIGLGVGGGVGA)”, the “Percentage … 1st and 3rd quartine” value in data set [1] is given as 9.2-33.4%. Further, in data set [1], the “expression of CXCR5 with respect to CTR” value is “statistically different expression of CXCR5 with respect to CTR”. In addition, the “Percentage of T-lymphocytes expressing CXCR5” value in data set [1] (donor Pz1) was 23.01%; in data set [1] (donor Pz2) it was 15.02%; in data set [1] (donor Pz3), 11.03%; in data set [1] (donor Pz4), 0.08%; in data set [1] (donor Pz5), 11,3%; in data set [1] (donor Pz6) it was 7,5%. Moreover, the “Percentage of T-lymphocytes expressing CXCR5” value in data set [1] (donor Pz7) is given as 13,4%; in data set [1] (donor Pz8) it was 61.07%; in data set [1] (donor Pz9), 36.01%; in data set [1] (donor Pz10), 34.06%. Moreover, the “Percentage … Median” value in data set [1] is listed as 14.9* %. Also, the “production of IFN-γ” value in data set [2] was “statistically significative production of IFN-γ”.
“Seq.1: Aβ[1-42] synthetic peptide, neurotoxic β amyloid peptide [reference compound]”: the “Percentage … 1st and 3rd quartine” value in data set [1] is 8.6-40.2%. Besides, the “expression of CXCR5 with respect to CTR” value in data set [1] is “statistically different expression of CXCR5 with respect to CTR”. Also, the “Percentage of T-lymphocytes expressing CXCR5” value in data set [1] (donor Pz1) is listed as 19.06%; in data set [1] (donor Pz2) it was 15.07%; in data set [1] (donor Pz3), 68.0%; in data set [1] (donor Pz4) it was 0.09%; in data set [1] (donor Pz5), 8,6%; in data set [1] (donor Pz7), 13,3%. Moreover, in data set [1], the “Percentage … Median” value was 17.7* %. For the same substance, the “production of IFN-γ” value in data set [2] is listed as “statistically significative production of IFN-γ”.
For the substance “Seq.3: Aβ[1-16] fragment modified by introduction of glycines in alternate positions, at odd positions (-G) (GAGFGHGSGYGVGHGK)”, the “Percentage … 1st and 3rd quartine” value in data set [1] is listed as 14.1-39.9%. Moreover, the “expression of CXCR5 with respect to CTR” value in data set [1] is on record as “statistically different expression of CXCR5 with respect to CTR”. Also, the “Percentage of T-lymphocytes expressing CXCR5” value in data set [1] (donor Pz1) is 16.05%; in data set [1] (donor Pz2), 20.05%; in data set [1] (donor Pz3), 64.01%; in data set [1] (donor Pz4), 2.09%; in data set [1] (donor Pz5) it was 9,5%; in data set [1] (donor Pz6) it was 6,9%. Also, the “Percentage of T-lymphocytes expressing CXCR5” value is recorded as 14,7% in data set [1] (donor Pz7), 40.06% in data set [1] (donor Pz8), 35.03% in data set [1] (donor Pz9) and 36.00% in data set [1] (donor Pz10). In addition, in data set [1], the “Percentage … Median” value is listed as 30.6* %. In addition, in data set [2], the “production of IFN-γ” value is on record as “statistically significative production of IFN-γ”.
For the substance “Seq.8: Aβ[25-42] fragment of the Aβ[1-42] sequence (GSNKGAIIGLMVGGVVIA)”, in data set [1], the “Percentage … 1st and 3rd quartine” value was 8.2-36.7%. For the same substance, the “expression of CXCR5 with respect to CTR” value in data set [1] was “statistically different expression of CXCR5 with respect to CTR”. The “Percentage of T-lymphocytes expressing CXCR5” value in data set [1] (donor Pz1) is 19.00%; in data set [1] (donor Pz2), 13.06%; in data set [1] (donor Pz3), 64.04%; in data set [1] (donor Pz4) it was 0.08%; in data set [1] (donor Pz5), 8,2%; in data set [1] (donor Pz6) it was 7,3%. Further, the “Percentage of T-lymphocytes expressing CXCR5” value in data set [1] (donor Pz7) is given as 15,8%; in data set [1] (donor Pz8), 45.00%; in data set [1] (donor Pz9), 36.07%; in data set [1] (donor Pz10) it was 36.00%. In addition, the “Percentage … Median” value in data set [1] was 17.4* %. In data set [2], the “production of IFN-γ” value is recorded as “statistically significative production of IFN-γ”.
For “Seq.6: Aβ[13-28] fragment modified by introduction of glycines in alternate positions, at odd positions (-G) (GHGKGVGFGEGVGSGK)”, the “Percentage … 1st and 3rd quartine” value in data set [1] is 11.3-39.9%. Further, the “expression of CXCR5 with respect to CTR” value in data set [1] is recorded as “statistically different expression of CXCR5 with respect to CTR”. Also, the “Percentage of T-lymphocytes expressing CXCR5” value is recorded as 22.04% in data set [1] (donor Pz1); 23.03% in data set [1] (donor Pz2); 25.09% in data set [1] (donor Pz3); 0% in data set [1] (donor Pz4); 13,4% in data set [1] (donor Pz5); 7,3% in data set [1] (donor Pz6). Further, the “Percentage of T-lymphocytes expressing CXCR5” value in data set [1] (donor Pz7) is on record as 14,6%; in data set [1] (donor Pz8), 43.03%; in data set [1] (donor Pz9) it was 31.03%; in data set [1] (donor Pz10) it was 29.05%. In addition, the “Percentage … Median” value in data set [1] is recorded as 21.7* %. Also, the “production of IFN-γ” value in data set [2] is on record as “statistically significative production of IFN-γ”.
With “AN1792: aggregated Aβ[1-42], first βA active vaccination (Pharmaceuticals Inc/Wyeth Pharmaceuticals)”, the “patients who developed meningoencephalitis” value in data set [3] is “about 6%”. Further, the amyloid pathology entry in data set [4] was “showed improvement in amyloid pathology”.
